From patent US7563788B2, “Substituted Imidazo[1,2-a]pyridines as Antibacterial Agents” (Pfizer Inc., priority 2004, dated 2009)
Values after ≈ are worked out from the molar mass of the structure shown.

System: Neisseria gonorrhoeae, GC525 (NG-2888)
Experiment: In-vitro antibacterial activity, microbroth dilution MIC susceptibility testing
Assay type: cell-based
Conditions: gonococcal broth, 20-24 hours at 35° C., lowest concentration preventing visible growth
Method: The in-vitro antibacterial activity of selected compounds was determined against a stain of Neisseria gonorrhoeae, GC525 (NG-2888), which is described by Rouquette-Loughlin et al, in Journal of Bacteriology, February 2003, p. 1101-1106, at p. 1103. In general, minimum inhibitory concentration (MIC) susceptibility testing followed procedures recommended by the National Committee for Clinical Laboratory Standards (NCCLS^1-2) or followed the descriptions described below:
Neisseria gonorrhoeae strains were grown on Chocolate Agar II plates (BBL—Becton Dickinson Microbiology Systems, Cockeysville, Md.) and incubated at 35° C. in a humidified 5% CO2 incubator (Forma Scientific, Marietta Ohio). For microbroth dilution MIC testing, N. gonorrhoeae were tested in gonococcal broth (GCB):
Bacterial culture identifications were confirmed by standard microbiological methods.^4 N. gonorrhoeae strains were streaked onto appropriate agar plates for visualization of purity and expected colony morphology. Gram stains were also utilized.
Bacterial stock cultures are stored as frozen suspensions at −70° C. N. gonorrhoeae cultures are suspended in inactivated Horse Serum (Colorado Serum Company, Denver, Colo.) containing 7.5% glucose prior to snap freezing in a dry ice/ethanol bath.
Frozen stock cultures were used as the initial source of organisms for performing microbroth dilution MIC testing. Stock cultures were passed on their respective growth medium at least one growth cycle (18-24 hours) prior to their use. Bacterial culture suspensions were prepared directly from Chocolate Agar II plates into 10 mL cation-adjusted Mueller-Hinton Broth (CAMHB, BBL, # BB215069). Before use, cultures were adjusted to an optical density value of […] on a Perkin-Elmer Lambda EZ150 Spectrophotometer (Wellesley, Mass.) set at a wavelength of 600 nm. Random cultures were plated for validation of actual colony counts. The adjusted cultures were diluted 400-fold (0.25 mL inoculum+100 mL GCB) into gonococcal broth producing a starting inoculum of approximately 5×10^5 cfu/mL. These cultures were inoculated into test plates (100 uL/well) using a Biomek® FX workstation (Beckman Coulter Inc., Fullerton, Calif.). The inoculated plates were placed in stacks of no more than 4 and covered with an empty plate. Plates were incubated for 20-24 hours at 35° C. in a humidified CO2 incubator.
Drug stock solutions (2 mg/mL in DMSO) were prepared on the day of testing. Drugs were weight corrected for assay content where necessary.
Microbroth dilution stock plates were prepared in two dilution series, 64-0.06 ug drug/mL and 1-0.001 ug drug/mL. For the high concentration series, 200 uL of stock solution (2 mg/mL) was added to duplicate rows of a 96-well plate. This was used as the first well in the dilution series. Serial two-fold decremental dilutions were made using a BioMek FX robot (Beckman Coulter Inc., Fullerton, Calif.) with 10 of the remaining 11 wells, each of which contained 100 uL of the appropriate solvent/diluent. Row 12 contained solvent/diluent only and served as the control. For tube one of the low concentration series, 200 uL of a 31.25 ug/mL stock was added to duplicate rows of a 96-well plate. Serial two-fold dilutions were made as described above.
Daughter plates were spotted (3.2 uL/well) from the stock plates listed above using the BioMek FX robot and were inoculated with organism (100 uL/well) as described previously.
After incubation, the degree of growth in each well was read visually with the aid of a Test Reading Mirror (Dynatech Lab 220-16, Dynex Technologies, Chantilly, Va.). 96-well test plates are read in a darkened room with a single light shining from above. The MIC is the lowest concentration of drug that prevents macroscopically visible growth under the conditions of the test. Each drug dilution series was tested in duplicate; identical results are not always obtained. If MIC values in duplicate tests differ by 1 well (two-fold), the […] value is reported. […]

Row | Compound | MIC
1 | CCOC(=O)Nc1cn2ccc(-c3cccnc3)cc2n1 [Example 1A, (7-Pyridin-3-yl-imidazo[1,2-a]pyridin-2-yl)-carbamic Acid Ethyl Ester] | > 64 µg/mL
2 | CCNC(=O)Nc1cn2ccc(-c3cccnc3)cc2n1 [Example 1B, 1-Ethyl-3-(7-pyridin-3-yl-imidazo[1,2-a]pyridin-2-yl)-urea] | 16 µg/mL (≈ 56.9 µM)
3 | CCOC(=O)Nc1cn2cnc(-c3cccnc3)cc2n1 [Example 5, (7-Pyridin-3-yl-imidazo[1,2-c]pyrimidin-2-yl)-carbamic Acid Ethyl Ester] | > 64 µg/mL
4 | CCNC(=O)Nc1cn2ccc(-c3ccc(OCCN4CCOCC4)nc3)cc2n1 [Example 6, 1-Ethyl-3-{7-[6-(2-morpholin-4-yl-ethoxy)-pyridin-3-yl]-imidazo[1,2-a]pyridin-2-yl}-urea] | 45.3 µg/mL (≈ 110 µM)
5 | CCNC(=O)Nc1cn2c(CO)cc(-c3cccnc3)cc2n1 [Example 7A, 1-Ethyl-3-(5-hydroxymethyl-7-pyridin-3-yl-imidazo[1,2-a]pyridin-2-yl)-urea] | 5.66 µg/mL (≈ 18.2 µM)
6 | CCNC(=O)Nc1cn2c(C(=O)OC)cc(-c3cccnc3)cc2n1 [Example 7B, 2-(3-Ethyl-ureido)-7-pyridin-3-yl-imidazo[1,2-a]pyridine-5-carboxylic Acid Methyl Ester] | 0.5 µg/mL (≈ 1.47 µM)
7 | CCNC(=O)Nc1cn2ccc(-c3cncnc3)cc2n1 [Example 8, 1-Ethyl-3-(7-pyrimidin-5-yl-imidazo[1,2-a]pyridin-2-yl)-urea] | 5.66 µg/mL (≈ 20 µM)
8 | CCNC(=O)Nc1cn2ccc(-c3c(C)noc3C)cc2n1 [Example 9, 1-[7-(3,5-Dimethyl-isoxazol-4-yl)-imidazo[1,2-a]pyridin-2-yl]-3-ethyl-urea] | > 64 µg/mL
9 | CCNC(=O)Nc1cn2ccc(-c3cnn(Cc4ccccc4)c3)cc2n1 [Example 10, 1-[7-(1-Benzyl-1H-pyrazol-4-yl)-imidazo[1,2-a]pyridin-2-yl]-3-ethyl-urea] | 8 µg/mL (≈ 22.2 µM)
10 | CCNC(=O)Nc1cn2ccc(-c3ccc(N4CCN(C)CC4)nc3)cc2n1 [Example 11, 1-Ethyl-3-{7-[6-(4-methyl-piperazin-1-yl)-pyridin-3-yl]-imidazo[1,2-a]pyridin-2-yl}-urea] | 64 µg/mL (≈ 169 µM)
11 | CCNC(=O)Nc1cn2ccc(-c3cnn(C)c3)cc2n1 [Example 12, 1-Ethyl-3-[7-(1-methyl-1H-pyrazol-4-yl)-imidazo[1,2-a]pyridin-2-yl]-urea] | 64 µg/mL (≈ 225 µM)
12 | CCNC(=O)Nc1cn2ccc(-c3cnc(OC)nc3OC)cc2n1 [Example 13, 1-[7-(2,4-Dimethoxy-pyrimidin-5-yl)-imidazo[1,2-a]pyridin-2-yl]-3-ethyl-urea] | > 64 µg/mL
13 | CCNC(=O)Nc1cn2ccc(-c3c(C)nn(C(=O)OC(C)(C)C)c3C)cc2n1 [Example 14, 4-[2-(3-Ethyl-ureido)-imidazo[1,2-a]pyridin-7-yl]-3,5-dimethyl-pyrazole-1-carboxylic Acid Tert-Butyl Ester] | 64 µg/mL (≈ 161 µM)
14 | CCNC(=O)Nc1cn2ccc(-c3cn[nH]c3)cc2n1 [Example 15, 1-Ethyl-3-[7-(1H-pyrazol-4-yl)-imidazo[1,2-a]pyridin-2-yl]-urea] | 64 µg/mL (≈ 237 µM)
15 | CCNC(=O)Nc1nc2cc(-c3cccnc3)ccn2c1Cl [Example 16, 1-(3-Chloro-7-pyridin-3-yl-imidazo[1,2-a]pyridin-2-yl)-3-ethyl-urea] | 64 µg/mL (≈ 203 µM)
16 | CCNC(=O)Nc1nc2cc(-c3cnc(N(C)C)nc3)ccn2c1Cl [Example 17, 1-[3-Chloro-7-(2-dimethylamino-pyrimidin-5-yl)-imidazo[1,2-a]pyridin-2-yl]-3-ethyl-urea] | > 32 µg/mL
17 | CCNC(=O)Nc1cn2ccc(C(=O)OC)cc2n1 [Example 18, 2-(3-Ethyl-ureido)-imidazo[1,2-a]pyridine-7-carboxylic Acid Methyl Ester] | > 64 µg/mL

Row | Compound | MIC
18 | CCNC(=O)Nc1cn2ccc(C(N)=O)cc2n1 [Example 19, 2-(3-Ethyl-ureido)-imidazo[1,2-a]pyridine-7-carboxylic Acid Amide] | > 64 µg/mL
19 | CCNC(=O)Nc1cn2ccc(-c3nc(C)n[nH]3)cc2n1 [Example 20, 1-Ethyl-3-[7-(5-methyl-2H-[1,2,4]triazol-3-yl)-imidazo[1,2-a]pyridin-2-yl]-urea] | > 64 µg/mL
20 | CCNC(=O)Nc1cn2ccc(-c3noc(C)n3)cc2n1 [Example 22, 1-Ethyl-3-[7-(5-methyl-[1,2,4]oxadiazol-3-yl)-imidazo[1,2-a]pyridin-2-yl]-urea] | > 64 µg/mL
21 | CCNC(=O)Nc1cn2c(-c3cnn(C)c3)cc(-c3cccnc3)cc2n1 [Example 23, 1-Ethyl-3-[5-(1-methyl-1H-pyrazol-4-yl)-7-pyridin-3-yl-imidazo[1,2-a]pyridin-2-yl]-urea] | 0.13 µg/mL (≈ 0.36 µM)
22 | CCNC(=O)Nc1cn2ccc(C(=O)O)cc2n1 [Example 24, 2-(3-Ethyl-ureido)-imidazo[1,2-a]pyridine-7-carboxylic Acid] | > 64 µg/mL
23 | CCNC(=O)Nc1cn2ccc(-c3c(C)n[nH]c3C)cc2n1 [Example 25, 1-[7-(3,5-Dimethyl-1H-pyrazol-4-yl)-imidazo[1,2-a]pyridin-2-yl]-3-ethyl-urea] | 64 µg/mL (≈ 215 µM)
24 | O=C(Nc1cn2ccc(-c3cncnc3)cc2n1)NC1CC1 [Example 27, 1-Cyclopropyl-3-(7-pyrimidin-5-yl-imidazo[1,2-a]pyridin-2-yl)-urea] | 64 µg/mL (≈ 217 µM)
25 | O=C(NCC1CC1)Nc1cn2ccc(-c3cncnc3)cc2n1 [Example 28, 1-Cyclopropylmethyl-3-(7-pyrimidin-5-yl-imidazo[1,2-a]pyridin-2-yl)-urea] | 32 µg/mL (≈ 104 µM)
26 | CCCNC(=O)Nc1cn2ccc(-c3cncnc3)cc2n1 [Example 29, 1-Propyl-3-(7-pyrimidin-5-yl-imidazo[1,2-a]pyridin-2-yl)-urea] | 16 µg/mL (≈ 54 µM)
27 | CC(C)NC(=O)Nc1cn2ccc(-c3cncnc3)cc2n1 [Example 30, 1-Isopropyl-3-(7-pyrimidin-5-yl-imidazo[1,2-a]pyridin-2-yl)-urea] | 32 µg/mL (≈ 108 µM)
28 | O=C(NCC(F)(F)F)Nc1cn2ccc(-c3cncnc3)cc2n1 [Example 31, 1-(7-Pyrimidin-5-yl-imidazo[1,2-a]pyridin-2-yl)-3-(2,2,2-trifluoro-ethyl)-urea] | 64 µg/mL (≈ 190 µM)
29 | COCCNC(=O)Nc1cn2ccc(-c3cncnc3)cc2n1 [Example 32, 1-(2-Methoxy-ethyl)-3-(7-pyrimidin-5-yl-imidazo[1,2-a]pyridin-2-yl)-urea] | > 64 µg/mL
30 | O=C(Nc1cn2ccc(-c3cncnc3)cc2n1)NC1CCC1 [Example 33, 1-Cyclobutyl-3-(7-pyrimidin-5-yl-imidazo[1,2-a]pyridin-2-yl)-urea] | 16 µg/mL (≈ 51.9 µM)
31 | CCNC(=O)Nc1cn2ccc(-c3ccc(N)nc3)cc2n1 [Example 34, 1-[7-(6-Amino-pyridin-3-yl)-imidazo[1,2-a]pyridin-2-yl]-3-ethyl-urea] | 16 µg/mL (≈ 54 µM)
32 | CCNC(=O)Nc1cn2ccc(C(C)=O)cc2n1 [Example 35, N-(7-acetylimidazo[1,2-a]pyridin-2-yl)-N′-ethylurea] | 64 µg/mL (≈ 260 µM)
33 | CCNC(=O)Nc1cn2ccc(-c3nnc(C)o3)cc2n1 [Example 36, 1-Ethyl-3-[7-(5-methyl-[1,3,4]oxadiazol-2-yl)-imidazo[1,2-a]pyridin-2-yl]-urea] | 64 µg/mL (≈ 224 µM)
34 | CCNC(=O)Nc1cn2ccc(-c3ccnc(NC(=O)OC(C)(C)C)c3)cc2n1 [Example 37, {4-[2-(3-Ethyl-ureido)-imidazo[1,2-a]pyridin-7-yl]-pyridin-2-yl}-carbamic Acid Tert-Butyl Ester] | 64 µg/mL (≈ 161 µM)
